Assay results published in patent publication US11339128B2 (Firmenich Incorporated, priority 2014, dated 2022).

Molecular target: T1, T1R2/T1R3 taste receptor (Homo sapiens, UniProt Q7RTX0+Q8TE23)
T1 sequence (Q8TE23 20-839): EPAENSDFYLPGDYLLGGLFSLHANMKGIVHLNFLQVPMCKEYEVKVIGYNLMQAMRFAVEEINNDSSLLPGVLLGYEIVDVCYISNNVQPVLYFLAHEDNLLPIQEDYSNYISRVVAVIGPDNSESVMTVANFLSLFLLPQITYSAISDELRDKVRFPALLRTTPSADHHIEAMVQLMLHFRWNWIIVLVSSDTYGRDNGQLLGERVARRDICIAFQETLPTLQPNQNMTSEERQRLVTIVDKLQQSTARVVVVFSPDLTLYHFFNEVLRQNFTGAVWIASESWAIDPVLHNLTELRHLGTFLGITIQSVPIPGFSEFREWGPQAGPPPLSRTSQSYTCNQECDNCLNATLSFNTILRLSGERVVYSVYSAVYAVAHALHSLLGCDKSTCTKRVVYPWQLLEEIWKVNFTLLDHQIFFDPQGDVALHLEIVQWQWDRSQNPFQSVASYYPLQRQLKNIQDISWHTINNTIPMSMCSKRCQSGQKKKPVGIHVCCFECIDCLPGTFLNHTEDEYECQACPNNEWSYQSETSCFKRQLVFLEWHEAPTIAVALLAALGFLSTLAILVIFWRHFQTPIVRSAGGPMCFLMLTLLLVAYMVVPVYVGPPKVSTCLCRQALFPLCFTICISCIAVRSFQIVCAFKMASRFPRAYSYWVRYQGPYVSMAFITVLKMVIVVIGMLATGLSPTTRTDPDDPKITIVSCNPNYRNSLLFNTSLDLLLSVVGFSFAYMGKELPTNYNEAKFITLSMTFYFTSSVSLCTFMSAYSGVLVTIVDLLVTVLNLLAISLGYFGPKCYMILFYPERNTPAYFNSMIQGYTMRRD
T1 sequence (Q7RTX0 21-852): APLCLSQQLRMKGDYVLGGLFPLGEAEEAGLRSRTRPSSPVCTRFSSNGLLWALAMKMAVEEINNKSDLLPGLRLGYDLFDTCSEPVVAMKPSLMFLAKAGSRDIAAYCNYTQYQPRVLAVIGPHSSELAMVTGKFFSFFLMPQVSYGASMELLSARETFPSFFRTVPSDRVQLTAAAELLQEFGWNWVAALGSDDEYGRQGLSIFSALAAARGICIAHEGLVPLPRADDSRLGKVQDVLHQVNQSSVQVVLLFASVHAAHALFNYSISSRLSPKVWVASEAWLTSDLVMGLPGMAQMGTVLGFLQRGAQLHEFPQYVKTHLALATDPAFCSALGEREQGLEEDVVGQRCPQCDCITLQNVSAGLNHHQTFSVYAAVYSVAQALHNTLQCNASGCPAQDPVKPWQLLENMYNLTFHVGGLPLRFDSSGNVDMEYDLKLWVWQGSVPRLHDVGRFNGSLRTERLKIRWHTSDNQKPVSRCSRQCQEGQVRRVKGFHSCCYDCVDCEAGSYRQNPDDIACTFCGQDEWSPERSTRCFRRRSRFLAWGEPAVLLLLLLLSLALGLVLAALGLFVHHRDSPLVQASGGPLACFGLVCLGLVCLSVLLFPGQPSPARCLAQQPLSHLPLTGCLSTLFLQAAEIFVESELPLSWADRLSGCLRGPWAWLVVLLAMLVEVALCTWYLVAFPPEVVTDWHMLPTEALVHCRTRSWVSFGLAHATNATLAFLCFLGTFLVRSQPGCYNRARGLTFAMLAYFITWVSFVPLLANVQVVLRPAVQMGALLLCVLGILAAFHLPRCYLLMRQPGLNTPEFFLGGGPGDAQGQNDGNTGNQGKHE
Assay: Receptor-based assay: sweetener EC50 enhancement ratio with and without test compound
Type: cell-based
Conditions: for Sucrose Enhancement EC50 Ratio: sweetener sucrose; for Sucralose Enhancement EC50 Ratio: sweetener sucralose; for Fructose Enhancement EC50 Ratio: sweetener fructose
In short: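 Sweetener (sucrose, sucralose, fructose) EC50 measured alone and with 1, 3, 10 or 50 μM test compound. Enhancement ratio = EC50 without/with compound; A = >1 to <10, B = 10–20, C = >20.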

Compound	Sucralose Enhancement EC50 Ratio (10 μM test compound)	Sucrose Enhancement EC50 Ratio (10 μM test compound)	Sucrose Enhancement EC50 Ratio (1 μM test compound)	Sucrose Enhancement EC50 Ratio (3 μM test compound)	Fructose Enhancement EC50 Ratio (50 μM test compound)	Sucralose Enhancement EC50 Ratio (3 μM test compound)	Fructose Enhancement EC50 Ratio (10 μM test compound)
CN[C@@H](C)C(=O)N[C@H]1CC[C@H](Oc2cccc3nc(C)c(C(=O)O)c(N)c23)CC1.Cl [Compound 500]	A (an enhancement ratio of greater than 1 and less than 10)	A (an enhancement ratio of greater than 1 and less than 10)	A (an enhancement ratio of greater than 1 and less than 10)	A (an enhancement ratio of greater than 1 and less than 10)	A (an enhancement ratio of greater than 1 and less than 10)		
CO[C@H]1CC[C@H](Oc2cccc3nc(C)c(C(=O)O)c(N)c23)CC1 [Compound 105]		C (an enhancement ratio greater than 20)	A (an enhancement ratio of greater than 1 and less than 10)	A (an enhancement ratio of greater than 1 and less than 10)			
Cc1nc2cccc(O[C@H]3CC[C@H](NC(=O)COCCOCc4ccccc4)CC3)c2c(N)c1C(=O)O [Compound 333]			A (an enhancement ratio of greater than 1 and less than 10)	B (an enhancement ratio from 10 to 20)			
Cc1nc2cccc(OC3CCC(C)(C)CC3)c2c(N)c1C(=O)O [Compound 103]			C (an enhancement ratio greater than 20)	C (an enhancement ratio greater than 20)			
COc1ccnc(N[C@H]2CC[C@H](Oc3cccc4nc(C)c(C(=O)O)c(N)c34)CC2)n1 [Compound 707]	B (an enhancement ratio from 10 to 20)	B (an enhancement ratio from 10 to 20)	A (an enhancement ratio of greater than 1 and less than 10)	A (an enhancement ratio of greater than 1 and less than 10)	A (an enhancement ratio of greater than 1 and less than 10)	A (an enhancement ratio of greater than 1 and less than 10)	A (an enhancement ratio of greater than 1 and less than 10)
CCc1nc2cccc(O[C@H]3CC[C@H](C(C)(C)C)CC3)c2c(N)c1C(=O)O [Compound 204]		A (an enhancement ratio of greater than 1 and less than 10)	A (an enhancement ratio of greater than 1 and less than 10)	A (an enhancement ratio of greater than 1 and less than 10)			
Cc1nc2cccc(O[C@H]3CC[C@H](NC(=O)COC(C)(C)C)CC3)c2c(N)c1C(=O)O [Compound 308]			B (an enhancement ratio from 10 to 20)				
CNC(C)(C)C(=O)N[C@H]1CC[C@H](Oc2cccc3nc(C)c(C(=O)O)c(N)c23)CC1 [Compound 501]	B (an enhancement ratio from 10 to 20)	A (an enhancement ratio of greater than 1 and less than 10)	A (an enhancement ratio of greater than 1 and less than 10)	A (an enhancement ratio of greater than 1 and less than 10)	A (an enhancement ratio of greater than 1 and less than 10)		A (an enhancement ratio of greater than 1 and less than 10)
COc1cc(OC)nc(N[C@H]2CC[C@H](Oc3cccc4nc(C)c(C(=O)O)c(N)c34)CC2)n1 [Compound 710]	B (an enhancement ratio from 10 to 20)	B (an enhancement ratio from 10 to 20)	A (an enhancement ratio of greater than 1 and less than 10)	A (an enhancement ratio of greater than 1 and less than 10)	A (an enhancement ratio of greater than 1 and less than 10)	A (an enhancement ratio of greater than 1 and less than 10)	A (an enhancement ratio of greater than 1 and less than 10)
Cc1nc2cccc(O[C@H]3CC[C@H](NC(=O)Cc4c[nH]cn4)CC3)c2c(N)c1C(=O)O [Compound 321]			A (an enhancement ratio of greater than 1 and less than 10)	A (an enhancement ratio of greater than 1 and less than 10)			
Cc1nc2cccc(O[C@H]3CC[C@H](Nc4cnccn4)CC3)c2c(N)c1C(=O)O [Compound 713]	B (an enhancement ratio from 10 to 20)	B (an enhancement ratio from 10 to 20)	A (an enhancement ratio of greater than 1 and less than 10)	B (an enhancement ratio from 10 to 20)	A (an enhancement ratio of greater than 1 and less than 10)	A (an enhancement ratio of greater than 1 and less than 10)	A (an enhancement ratio of greater than 1 and less than 10)
CO[C@H]1CC[C@@H](Oc2cccc3nc(C)c(C(=O)O)c(N)c23)CC1 [Compound 106]		A (an enhancement ratio of greater than 1 and less than 10)	A (an enhancement ratio of greater than 1 and less than 10)	A (an enhancement ratio of greater than 1 and less than 10)			
Cc1nc2cccc(O[C@H]3CC[C@H](NC(=O)CN4CCOCC4)CC3)c2c(N)c1C(=O)O.Cl [Compound 600, 4-Amino-2-methyl-5-((trans-4-(2-morpholinoacetamido)cyclohexyl)oxy) quinolone-3-carboxylic acid (HCl)]			B (an enhancement ratio from 10 to 20)	C (an enhancement ratio greater than 20)			
Cc1nc2cccc(O[C@H]3CC[C@H](NC(=O)COCC4CC4)CC3)c2c(N)c1C(=O)O [Compound 313]		A (an enhancement ratio of greater than 1 and less than 10)	A (an enhancement ratio of greater than 1 and less than 10)	C (an enhancement ratio greater than 20)			

Further lines, with some results ahead:

Sucralose Enhancement EC50 Ratio (10 μM test compound)	Sucrose Enhancement EC50 Ratio (10 μM test compound)	Compound	Sucrose Enhancement EC50 Ratio (1 μM test compound)	Sucrose Enhancement EC50 Ratio (3 μM test compound)	Fructose Enhancement EC50 Ratio (50 μM test compound)	Sucralose Enhancement EC50 Ratio (3 μM test compound)	Fructose Enhancement EC50 Ratio (10 μM test compound)
	B (an enhancement ratio from 10 to 20)	COCCC(=O)N[C@H]1CC[C@H](Oc2cccc3nc(C)c(C(=O)O)c(N)c23)CC1 [Compound 317]	A (an enhancement ratio of greater than 1 and less than 10)	A (an enhancement ratio of greater than 1 and less than 10)			
	C (an enhancement ratio greater than 20)	Cc1nc2cccc(O[C@H]3CC[C@H](CO)CC3)c2c(N)c1C(=O)O [Compound 109]	B (an enhancement ratio from 10 to 20)	C (an enhancement ratio greater than 20)			
	C (an enhancement ratio greater than 20)	CCOC(C)C(=O)N[C@H]1CC[C@H](Oc2cccc3nc(C)c(C(=O)O)c(N)c23)CC1 (some centres unmarked) [Compound 315]	B (an enhancement ratio from 10 to 20)	B (an enhancement ratio from 10 to 20)			
